According to ChEMBL document CHEMBL1201862, “PubChem BioAssay data set” (2004):
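Step 1: Grow cells in 96-well plates. Step 2: Expose to compound for 48 hours at 5 concentrations. Step 3: Interpolate endpoints linearly; if unreached, use highest concentration. GI50 marks 50% less growth.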 The source made the active and inactive calls. Cut-off read from the data, not from the text of the source: active = GI50 up to about 1.1 µM and inactive = higher.

How the values were obtained:
Assay in all cases: NCI-60 cell line screen, 48 h
COLO 205 = test system: COLO 205
Hs-578T = test system: Hs-578T
SN12C = test system: SN12C
Malme-3M = test system: Malme-3M
MDA-MB-231 = test system: MDA-MB-231
NCI-H522 = test system: NCI-H522
HOP-92 = test system: HOP-92
UO-31 = test system: UO-31
NCI/ADR-RES = test system: NCI/ADR-RES
HT-29 = test system: HT-29
UACC-257 = test system: UACC-257
SK-OV-3 = test system: SK-OV-3
SF-295 = test system: SF-295
HOP-62 = test system: HOP-62
LOX IMVI = test system: LOX IMVI
SK-MEL-2 = test system: SK-MEL-2
CAKI-1 = test system: CAKI-1
SW-620 = test system: SW-620
HCC 2998 = test system: HCC 2998
HCT-116 = test system: HCT-116
UACC-62 = test system: UACC-62
MDA-MB-435 = test system: MDA-MB-435
SNB-19 = test system: SNB-19
OVCAR-3 = test system: OVCAR-3
OVCAR-4 = test system: OVCAR-4
RXF 393 = test system: RXF 393
HCT-15 = test system: HCT-15
MDA-N = test system: MDA-N
SK-MEL-5 = test system: SK-MEL-5
T47D = test system: T47D
A549 = test system: A549
MCF7 = test system: MCF7
IGROV-1 = test system: IGROV-1
MOLT-4 = test system: MOLT-4
SR = test system: SR
SF-539 = test system: SF-539
EKVX = test system: EKVX
SNB-75 = test system: SNB-75
HL-60 = test system: HL-60
TK-10 = test system: TK-10
K562 = test system: K562
NCI-H23 = test system: NCI-H23
BT-549 = test system: BT-549
786-0 = test system: 786-0
OVCAR-8 = test system: OVCAR-8
RPMI-8226 = test system: RPMI-8226
U-251 = test system: U-251
PC-3 = test system: PC-3
CCRF-CEM = test system: CCRF-CEM
NCI-H226 = test system: NCI-H226
A498 = test system: A498
M14 = test system: M14
ACHN = test system: ACHN
KM12 = test system: KM12
NCI-H460 = test system: NCI-H460
OVCAR-5 = test system: OVCAR-5
DU-145 = test system: DU-145
SK-MEL-28 = test system: SK-MEL-28
SF-268 = test system: SF-268

Cc1ccc2nc(/C=N/c3ccccc3Cl)cc(C)c2c1
GI50 (COLO 205): 50.8 µM (inactive) | GI50 (Hs-578T): 25.5 µM (inactive) | GI50 (SN12C): 12.2 µM (inactive) | GI50 (Malme-3M): 20.8 µM (inactive) | GI50 (MDA-MB-231): 13.2 µM (inactive) | GI50 (NCI-H522): 20 µM (inactive) | GI50 (HOP-92): 25.4 µM (inactive) | GI50 (UO-31): 16.5 µM (inactive) | GI50 (NCI/ADR-RES): 16.8 µM (inactive) | GI50 (HT-29): 18.4 µM (inactive) | GI50 (UACC-257): 15.8 µM (inactive) | GI50 (SK-OV-3): 27.4 µM (inactive) | GI50 (SF-295): 21.9 µM (inactive) | GI50 (HOP-62): 38.8 µM (inactive) | GI50 (LOX IMVI): 8.61 µM (inactive) | GI50 (SK-MEL-2): 40.2 µM (inactive) | GI50 (CAKI-1): 30.8 µM (inactive) | GI50 (SW-620): 13.1 µM (inactive) | GI50 (HCC 2998): 47.3 µM (inactive) | GI50 (HCT-116): 4.21 µM (inactive) | GI50 (UACC-62): 14.6 µM (inactive) | GI50 (MDA-MB-435): 12.7 µM (inactive) | GI50 (SNB-19): 30.2 µM (inactive) | GI50 (OVCAR-3): 17.5 µM (inactive) | GI50 (OVCAR-4): 34 µM (inactive) | GI50 (RXF 393): 14.5 µM (inactive) | GI50 (HCT-15): 18.4 µM | GI50 (MDA-N): 5.57 µM (inactive) | GI50 (SK-MEL-5): 14.9 µM (inactive) | GI50 (T47D): 22.4 µM (inactive) | GI50 (A549): > 100 µM (inactive) | GI50 (MCF7): 17.5 µM (inactive) | GI50 (IGROV-1): 18.9 µM (inactive) | GI50 (MOLT-4): 5.79 µM (inactive) | GI50 (SR): 2.81 µM (inactive) | GI50 (SF-539): 16.5 µM (inactive) | GI50 (EKVX): 20.4 µM (inactive) | GI50 (SNB-75): 19.9 µM (inactive) | GI50 (HL-60): 2.73 µM (inactive) | GI50 (TK-10): 30.3 µM (inactive) | GI50 (K562): 19.1 µM (inactive) | GI50 (NCI-H23): 22.2 µM (inactive) | GI50 (BT-549): 16.1 µM (inactive) | GI50 (786-0): 16.7 µM (inactive) | GI50 (OVCAR-8): 15.2 µM (inactive) | GI50 (RPMI-8226): 8.75 µM (inactive) | GI50 (U-251): 20.7 µM (inactive) | GI50 (PC-3): 25.4 µM (inactive) | GI50 (CCRF-CEM): 4.89 µM (inactive) | GI50 (NCI-H226): 20.6 µM (inactive) | GI50 (A498): > 100 µM (inactive) | GI50 (M14): 13.2 µM (inactive) | GI50 (ACHN): 30.7 µM (inactive) | GI50 (KM12): 17.4 µM (inactive) | GI50 (NCI-H460): 17.2 µM (inactive) | GI50 (OVCAR-5): 42.3 µM (inactive) | GI50 (DU-145): 46.7 µM (inactive) | GI50 (SK-MEL-28): 18.9 µM (inactive) | GI50 (SF-268): 16 µM (inactive)

CC(=O)C(CN1CCOCC1)C(c1ccccc1)c1c(O)c2ccccc2oc1=O (stereo not drawn)
GI50 (COLO 205): > 100 µM (inactive) | GI50 (Hs-578T): > 100 µM (inactive) | GI50 (SN12C): > 100 µM (inactive) | GI50 (Malme-3M): 80.9 µM (inactive) | GI50 (MDA-MB-231): 83.9 µM (inactive) | GI50 (NCI-H522): > 100 µM (inactive) | GI50 (HOP-92): 32 µM (inactive) | GI50 (UO-31): > 100 µM (inactive) | GI50 (NCI/ADR-RES): > 100 µM (inactive) | GI50 (HT-29): > 100 µM (inactive) | GI50 (UACC-257): > 100 µM (inactive) | GI50 (SK-OV-3): > 100 µM (inactive) | GI50 (SF-295): > 100 µM (inactive) | GI50 (HOP-62): > 100 µM (inactive) | GI50 (LOX IMVI): > 100 µM (inactive) | GI50 (SK-MEL-2): > 100 µM (inactive) | GI50 (CAKI-1): > 100 µM (inactive) | GI50 (SW-620): > 100 µM (inactive) | GI50 (HCC 2998): > 100 µM (inactive) | GI50 (HCT-116): > 100 µM (inactive) | GI50 (UACC-62): > 100 µM (inactive) | GI50 (MDA-MB-435): > 100 µM (inactive) | GI50 (SNB-19): > 100 µM (inactive) | GI50 (OVCAR-3): > 100 µM (inactive) | GI50 (OVCAR-4): > 100 µM (inactive) | GI50 (RXF 393): 31.6 µM (inactive) | GI50 (HCT-15): > 100 µM | GI50 (MDA-N): > 100 µM (inactive) | GI50 (SK-MEL-5): > 100 µM (inactive) | GI50 (T47D): > 100 µM (inactive) | GI50 (A549): > 100 µM (inactive) | GI50 (MCF7): > 100 µM (inactive) | GI50 (IGROV-1): > 100 µM (inactive) | GI50 (MOLT-4): > 100 µM (inactive) | GI50 (SR): 64.7 µM (inactive) | GI50 (SF-539): > 100 µM (inactive) | GI50 (EKVX): > 100 µM (inactive) | GI50 (SNB-75): > 100 µM (inactive) | GI50 (HL-60): 41.3 µM (inactive) | GI50 (TK-10): > 100 µM (inactive) | GI50 (K562): > 100 µM (inactive) | GI50 (NCI-H23): > 100 µM (inactive) | GI50 (BT-549): > 100 µM (inactive) | GI50 (786-0): > 100 µM (inactive) | GI50 (OVCAR-8): > 100 µM (inactive) | GI50 (RPMI-8226): 43.1 µM (inactive) | GI50 (U-251): > 100 µM (inactive) | GI50 (PC-3): > 100 µM (inactive) | GI50 (CCRF-CEM): > 100 µM (inactive) | GI50 (NCI-H226): > 100 µM (inactive) | GI50 (A498): > 100 µM (inactive) | GI50 (M14): > 100 µM (inactive) | GI50 (ACHN): > 100 µM (inactive) | GI50 (KM12): > 100 µM (inactive) | GI50 (NCI-H460): > 100 µM (inactive) | GI50 (OVCAR-5): > 100 µM (inactive) | GI50 (DU-145): > 100 µM (inactive) | GI50 (SK-MEL-28): > 100 µM (inactive) | GI50 (SF-268): > 100 µM (inactive)
